Counter-ions that a name gives are not always drawn.

The text below walks through data of patent publication US11904049B2, “Pharmaceutical formulation” (priority 2017, dated 2024).

The conditions of series [1]: cited from earlier work.
Series [2] in a line: in vivo. Particulars: male, beagle, dog, plasma, intravenous, 0.143 mg/kg.
Protocol: The three beagle dogs used in the experiment were male, non-naïve beagle dogs, weighing 12.7-13.9 kg, 37-39.5 months old, from CEDS (France) at the first session.
At each test session, serial blood samples were collected in all dogs at 12 time points: pre-dose, and then 0.083 (5 min), 0.167 (10 min), 0.33 (20 min), 0.5 (30 min), 1, 2, 3, 4, 5, 6 and 8 hours after the initial application, giving therefore a total of 180 blood samples. At each time-point, a blood sample of 2 mL was collected by puncture in a jugual vein in conscious animals using an identified vacuum tube containing K2-EDTA (Greiner Bio-One ref #454047) for plasma preparation. Immediately after collection, the blood sample was gently agitated and stored on ice until centrifugation (within 30 minutes of sampling). The blood samples were centrifuged at 4° C., at 1500 g, for 10 minutes. The entire resultant plasma was immediately transferred into an identified 1 mL polypropylene screw capped cryotube (1 aliquot of at least 800 μL of plasma) maintained on ice. The tubes were stored upright at approximately −20° C. until shipment to the test site, ABS Laboratories (BioPark, Broadwater Road, Welwyn Garden City, Herts AL7 3AX), for analysis by HPLC-MS (high performance liquid chromatography-mass spectrometry) using a standard separation protocol.
Individual concentration (C) versus time (T) curves were analysed for standard pharmacokinetic (PK) parameters using non-compartmental analysis using the SimBiology package of MatLab, Version 2015b.

Turning to `C=CCN1CC[C@]23c4c5ccc(O)c4O[C@H]2C(=O)CC[C@@]3(O)[C@H]1C5` [naloxone], in series [1], the “strongest basic pKa” value is 10.07. Further, the pKa in series [1] (naloxone as a base) is recorded as 7.84.

Consider `C=CCN1CC[C@]23c4c5ccc(O)c4O[C@H]2C(=O)CC[C@@]3(O)[C@H]1C5` [Intravenous, Naloxone HCl], for which, in series [2], the AUC(0-t) was 20.8 ng·h/mL, the Cmax was 29.4 ng/mL, the Tmax was 6.7 min and the concentration at 5 min worked out at 28.2 ng/mL.
